Experimental data as given in US20190004043A1 (priority 2015, published 2019).
“Also recorded” adds a separate entry of the source. Where two headings read alike, the source gives them in different places.

Assays:
Format in all cases: binding
[1] = target: T1, Torpedo nicotinic Acetylcholine Receptor (Tetronarce californica, UniProt P02710+P02714+P02718); test: Lateral flow test with two test lines: dose-response competition with biotinylated toxin tracer; settings: for coloration of the two test lines / inhibition of labelled ligand binding: toxin 0.01 to 1 μM
T1 sequence (P02718 22-522): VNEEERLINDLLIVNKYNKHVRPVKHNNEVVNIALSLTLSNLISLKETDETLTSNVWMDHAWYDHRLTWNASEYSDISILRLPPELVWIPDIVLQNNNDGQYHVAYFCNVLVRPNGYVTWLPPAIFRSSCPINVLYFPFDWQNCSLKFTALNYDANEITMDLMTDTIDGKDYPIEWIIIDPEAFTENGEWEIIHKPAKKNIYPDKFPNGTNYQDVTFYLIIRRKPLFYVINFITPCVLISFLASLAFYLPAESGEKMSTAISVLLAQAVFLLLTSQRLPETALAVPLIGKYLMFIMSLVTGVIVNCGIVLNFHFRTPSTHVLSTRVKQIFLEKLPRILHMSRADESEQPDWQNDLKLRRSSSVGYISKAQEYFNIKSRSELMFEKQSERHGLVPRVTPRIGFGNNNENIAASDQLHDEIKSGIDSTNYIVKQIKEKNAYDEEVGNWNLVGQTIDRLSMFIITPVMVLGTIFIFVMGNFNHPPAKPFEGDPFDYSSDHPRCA
T1 sequence (P02714 18-506): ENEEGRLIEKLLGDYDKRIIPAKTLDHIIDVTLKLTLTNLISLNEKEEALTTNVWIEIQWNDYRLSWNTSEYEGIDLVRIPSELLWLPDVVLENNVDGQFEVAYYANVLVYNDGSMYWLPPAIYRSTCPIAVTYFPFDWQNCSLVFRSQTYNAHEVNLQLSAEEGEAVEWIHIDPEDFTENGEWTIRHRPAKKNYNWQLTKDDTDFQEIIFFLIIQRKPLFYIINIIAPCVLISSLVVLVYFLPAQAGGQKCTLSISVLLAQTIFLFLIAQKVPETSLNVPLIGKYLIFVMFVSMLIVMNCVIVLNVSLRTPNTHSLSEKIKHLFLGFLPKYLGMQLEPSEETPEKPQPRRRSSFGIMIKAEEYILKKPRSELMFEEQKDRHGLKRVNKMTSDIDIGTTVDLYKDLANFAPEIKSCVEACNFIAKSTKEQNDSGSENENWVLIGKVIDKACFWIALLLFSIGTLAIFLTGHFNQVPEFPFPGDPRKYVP
T1 sequence (P02712 25-493, further chain): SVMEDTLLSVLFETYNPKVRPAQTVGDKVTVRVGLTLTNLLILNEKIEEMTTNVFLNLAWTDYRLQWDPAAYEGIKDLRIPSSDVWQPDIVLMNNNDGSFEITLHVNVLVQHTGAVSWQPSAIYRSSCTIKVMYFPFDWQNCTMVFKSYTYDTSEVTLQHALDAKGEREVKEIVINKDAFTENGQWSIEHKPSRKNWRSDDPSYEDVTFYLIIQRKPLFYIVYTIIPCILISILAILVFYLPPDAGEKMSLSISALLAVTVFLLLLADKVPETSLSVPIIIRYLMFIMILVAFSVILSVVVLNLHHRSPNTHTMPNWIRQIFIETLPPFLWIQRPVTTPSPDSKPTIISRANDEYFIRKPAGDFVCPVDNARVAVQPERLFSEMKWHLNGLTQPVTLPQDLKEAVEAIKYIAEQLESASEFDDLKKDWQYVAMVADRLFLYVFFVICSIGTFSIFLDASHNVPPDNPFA
T1 sequence (P02710 25-461): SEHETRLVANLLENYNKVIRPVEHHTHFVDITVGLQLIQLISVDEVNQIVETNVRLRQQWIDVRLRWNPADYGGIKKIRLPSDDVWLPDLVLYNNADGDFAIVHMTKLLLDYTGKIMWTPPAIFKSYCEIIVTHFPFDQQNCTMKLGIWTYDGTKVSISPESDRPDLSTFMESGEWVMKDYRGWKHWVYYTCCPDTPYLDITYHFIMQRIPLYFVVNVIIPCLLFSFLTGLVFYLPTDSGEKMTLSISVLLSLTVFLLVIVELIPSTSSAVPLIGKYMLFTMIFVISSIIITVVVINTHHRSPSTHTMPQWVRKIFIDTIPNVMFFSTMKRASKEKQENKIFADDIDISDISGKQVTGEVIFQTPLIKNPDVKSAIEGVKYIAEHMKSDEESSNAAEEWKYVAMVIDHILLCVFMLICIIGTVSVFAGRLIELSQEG
Method: The device used was a device manufactured according to above example 1, with the exception that two test lines were used instead of one test line and one control line. The control line is used to control if the strip test works properly. We controlled that all the lateral flow test devices were working well and we carried out several tests without toxins that we took as control (Ctrl) that the device was working as expected (FIG. 4).
In the present example several experiments were carried out using different toxins at different concentrations. Through the format two test lines, we tested the potency of the toxins at a given concentration.
In particular, different doses of the snake toxin a-bungarotoxin were tested between 0.01 to 10 μM (FIG. 4A). For that purpose, 1 mL of α-bungarotoxin at a concentration of 10 μM was prepared from the commercial a-bungarotoxin (Sigma; 250 μM) using TBS-BSA buffer (150 mM NaCl, 50 mM Tris-HCl, 0.5% BSA, pH 7.5). Successively, 1 mL of 1 μM α-bungarotoxin was prepared by diluting 10-times the previous concentrated solution using TBS-BSA buffer. Serial 10-times dilutions were performed as described to obtain the 0.1 and 0.01 μM α-bungarotoxin solutions using TBS-BSA buffer.
Different doses of the dinoflagellate toxin pinnatoxin-G ranging from 0.01 to 100 μM were also tested (FIG. 4B). For that purpose, 1 mL of pinnatoxin-G at a concentration of 100 μM was prepared from the synthetic pinnatoxin-G stock (A. Zakarian; 2 mM) using TBS-BSA buffer (150 mM NaCl, 50 mM Tris-HCl, 0.5% BSA, pH 7.5). Successively, 1 mL of 50 μM pinnatoxin-G was prepared by diluting 2-times the previous concentrated solution using TBS-BSA buffer. A solution of 1 μM pinnatoxin-G was obtained by diluting 50-times the previous 50 μM pinnatoxin-G solution using TBS-BSA buffer. Serial 10-times dilutions were performed as described to obtain the 0.1 and 0.01 μM pinnatoxin-G solutions using TBS-BSA buffer.
Finally, different doses of the dinoflagellate toxin 13,19-didesmethyl-spirolide C ranging from 0.01 to 10 μM were also tested. For that purpose, 1 mL of 13,19-didesmethyl-spirolide C at a concentration of 10 μM was prepared from the concentrated 13,19-didesmethyl-spirolide C stock (CIFGA; 100 μM) using TBS-BSA buffer (150 mM NaCl, 50 mM Tris-HCl, 0.5% BSA, pH 7.5). Successively, 1 mL of 1 μM 13,19-didesmethyl-spirolide C was prepared by diluting 10-times the previous concentrated solution using TBS-BSA buffer. Serial 10-times dilutions were performed as described to obtain the 0.1 and 0.01 μM 13,19-didesmethyl-spirolide C solutions using TBS-BSA buffer.
The competition experiments were carried out as disclosed in above example 2.

[2] = target: T1, Torpedo nicotinic Acetylcholine Receptor
[3] = target: T1, Torpedo nicotinic Acetylcholine Receptor; test: Lateral flow test with two test lines: dose-response competition with biotinylated toxin tracer; settings: lower concentrations (0.001 to 1 μM)

C=C1CCCC2=NCC(C)C(C)CC23CCC(C2C=C(C)C(=O)O2)=C(C)C3/C=C(\C)C(O)CC2CCC3(CCC4(OC(CCC4O)C1)O3)O2 (centres unmarked) [13,19-didesmethyl-spirolide C]
inhibition of binding of the biotinylated toxin tracer ([1]; all concentrations, 0.01 to 10 μM): inhibited the binding of the biotinylated toxin tracer at all concentration | inhibition of binding of the labelled ligand (test lines colorless) ([1]; toxin 1 μM): 100% | inhibition of binding of the labelled ligand (test lines colorless) ([1]; toxin 10 μM): 100% | coloration of the two test lines / inhibition of labelled ligand binding [1]: strong inhibition

C=C1CCCC2=NCC(C)C(C)CC23CCC(C2C=C(C)C(=O)O2)=C(C)C3/C=C(/C)C(O)CC2CCC3(CCC4(OC(CCC4(C)O)C1)O3)O2 (centres unmarked) [13-desmethyl-spirolide C]
coloration of test line versus control line / inhibition of tracer binding [2]: a colorless or a less-colored band in the test zone; also recorded: inhibits the binding of the tracer

C=CC1=C[C@@H]2[C@@H]3O[C@]4(C[C@H]5CCC[C@@]6(CC[C@@]7(O[C@@H](CC[C@@]7(C)O)CC(=C)CCCC7=NC[C@H](C)[C@@H](C)C[C@@]72CC1)O6)O5)C[C@@H](C)[C@@H](O)[C@H]3O4 [pinnatoxin-G]
coloration of the two test lines versus control strip ([1]; toxin 50 μM): both test lines were colorless | inhibition of binding of the labelled ligand (test lines colorless) ([1]; toxin 50 μM): 100% | coloration of the two test lines versus control strip ([1]; toxin 100 μM): both test lines were colorless | inhibition of binding of the labelled ligand (test lines colorless) ([1]; toxin 100 μM): 100% | coloration of the two test lines / inhibition of labelled ligand binding [1]: only the second test line was colored with a lower intensity than was shown by the control strip | coloration of the two test lines versus control test [3]: only the upper test line was colored but to a less intensity than in the control test

α-bungarotoxin
coloration of the two test lines / binding of labelled tracer [1]: inhibited the binding of the labelled tracer in both test lines | coloration of the two test lines versus control test [1]: both test lines are colored showing, however, a less intensity than in the control test | inhibition of binding of the labelled ligand (test lines colorless) [1]: 100%
